Test results as given in patent US9765087B2, “Benzimidazole derivatives” (ENANTA PHARMACEUTICALS, INC., priority 2009, dated 2017).
Where two headings read alike, the source gives them in different places.

System: HCV 1a genotype replicon
Experiment: HCV replicon assay (qRT-PCR or luciferase), genotype 1a
Format: cell-based
Details: Hepatitis C virus
Description: HCV replicon cell lines (kindly provided by R. Bartenschlager) isolated from colonies as described by Lohman et. al. (Lohman et al. (1999) Science 285: 110-113, expressly incorporated by reference in its entirety) and used for all experiments. The HCV replicon has the nucleic acid sequence set forth in EMBL Accession No.: AJ242651, the coding sequence of which is from nucleotides 1801 to 8406.
These cell lines were maintained at 37° C., 5% CO2, 100% relative humidity in DMEM (Cat#11965-084, Invitrogen), with 10% fetal calf serum (“FCS”, Invitrogen), 1% non-essential amino acids (Invitrogen), 1% of Glutamax (Invitrogen), 1% of 100× penicillin/streptomycin (Cat#15140-122, Invitrogen) and Geneticin (Cat#10131-027, Invitrogen) at 0.75 mg/ml or 0.5 mg/ml for 11-7 and Huh-luc/neo-ET cells, respectively.
EC50 values of single agent compounds and combinations were determined by HCV RNA detection using quantitative RT-PCR, according to the manufacturer's instructions, with a TAQMAN® One-Step RT-PCR Master Mix Reagents Kit (Cat#AB 4309169, Applied Biosystems) on an ABI Model 7500 thermocycler. The TaqMan primers used for detecting and quantifying HCV RNA were obtained from Integrated DNA Technologies. HCV RNA was normalized to GAPDH RNA levels in drug-treated cells, which is detected and quantified using the Human GAPDH Endogenous Control Mix (Applied Biosystems, AB 4310884E). Total cellular RNA is purified from 96-well plates using the RNAqueous 96 kit (Ambion, Cat# AM1812). Chemical agent cytotoxicity is evaluated using an MTS assay according to the manufacturer's directions (Promega).
Since clinical drug resistance often develops in viral infections following single agent therapies, there is a need to assess the additive, antagonistic, or synergistic properties of combination therapies. We used the HCV replicon system to assess the potential use of the compound of the present invention or in combination therapies with Interferon alpha, cyclosporine analogs and inhibitors targeting other HCV proteins. The acute effects of a single or combinations of drugs are studied in the “Huh-luc/neo-ET” replicon with each chemical agent titrated in an X or Y direction in a 6 point two-fold dilution curve centered around the EC50 of each drug. Briefly, replicon cells are seeded at 7,000 cells per well in 90 ul DMEM (without phenol red, Invitrogen Cat.#31053-036) per well with 10% FCS, 1% non-essential amino acids, 1% of Glutamax and 1% of 100× penicillin/streptomycin and incubated overnight at 37° C., 5% CO2, 100% relative humidity. 16-20 h after seeding cells, test compounds previously solubilized and titrated in dimethyl sulfoxide (“DMSO”) from each X plate and Y plate are diluted 1:100 in DMEM (without phenol red, Invitrogen Cat.#31053-036) with 10% FCS, 1% non-essential amino acids, 1% of Glutamax and 1% of 100× penicillin/streptomycin and added directly to the 96-well plate containing cells and growth medium at a 1:10 dilution for a final dilution of compound and DMSO of 1:1000 ([…] final concentration). Drug treated cells are incubated at 37° C., 5% CO2, 100% relative humidity for 72 hours before performing a luciferase assay using 100 ul per well BriteLite Plus (Perkin Elmer) according to the manufacturer's instructions. Data analysis utilizes the method published by Prichard and Shipman (Antiviral Research, 1990. 14:181-205). Using this method, the combination data are analyzed for antagonistic, additive, or synergistic combination effects across the entire combination surface created by the diluted compounds in combination.
The compounds of the present invention can be effective against the HCV 1b genotype. It should also be understood that the compounds of the present invention can inhibit multiple genotypes of HCV. In one embodiment compound of the present invention are active against the 1a, 1b, 2a, 2b, 3a, 4a, and 5a genotypes. […] EC50 ranges against HCV 1b and 1a are as follows: A>10 nM; B1-10 nM; C<1 nM.

[1] = Table 12, range class, read-out: 1a EC50 Range
[2] = Table 12, numeric values, read-out: 1a EC50

Row | Structure (SMILES) | EC50 [1] [nM] | further results
1 | COC(=O)N[C@H](C(=O)N1CC2(CC2)C[C@H]1c1nc(-c2ccc(C#Cc3ccc4[nH]c([C@@H]5CC6(CC6)CN5C(=O)[C@@H](NC(=O)OC)C(C)C)nc4c3)cc2)c(C2CC2)[nH]1)C(C)C [Example 591] | < 1 | –
2 | COC(=O)N[C@H](C(=O)N1CC2(CC2)C[C@H]1c1ncc(-c2ccc(C#Cc3ccc4nc([C@@H]5CC6(CC6)CN5C(=O)[C@@H](NC(=O)OC)C5CCCC5)[nH]c4c3)cc2)[nH]1)C(C)C [Example 679] | < 1 | –
3 | COC(=O)N[C@H](C(=O)N1CC2(CC2)C[C@H]1c1ncc(-c2ccc(C#Cc3ccc4nc([C@@H]5C[C@H]6C[C@H]6N5C(=O)[C@H](NC(=O)OC)c5ccccc5)[nH]c4c3)cc2)[nH]1)C(C)C [Example 586] | < 1 | –
4 | COC(=O)N[C@@H](CC(N)=O)C(=O)N1CCC[C@H]1c1ncc(-c2ccc(C#Cc3ccc4nc([C@@H]5CC6(CC6)CN5C(=O)[C@@H](NC(=O)OC)C(C)C)[nH]c4c3)cc2)[nH]1 [Example 619] | – | EC50 [2]: 0.699 nM
5 | COC(=O)N[C@H](C(=O)N1CC2(CC2)C[C@H]1c1ncc(-c2ccc(C#Cc3ccc4nc([C@@H]5CC6(CC6)CN5C(=O)[C@H](NC(=O)OC)c5cccnc5)[nH]c4c3)cc2)[nH]1)C(C)C [Example 610] | < 1 | –
6 | COC(=O)N[C@H](C(=O)N1CC2(CC2)C[C@H]1c1nc2ccc(C#Cc3ccc(-c4cnc([C@@H]5C[C@H]6C[C@H]6N5C(=O)[C@H](NC(=O)OC)c5cccc(F)c5)[nH]4)cc3)cc2[nH]1)C(C)C [Example 684] | < 1 | –
7 | COC(=O)N[C@H](C(=O)N1CC2(CC2)C[C@H]1c1nc2ccc(C#Cc3ccc(-c4cnc([C@@H]5CCCN5C(=O)[C@H](NC(=O)OC)c5ccoc5)[nH]4)cc3)cc2[nH]1)C(C)C [Example 681] | – | EC50 [2]: 0.202 nM
8 | COC(=O)N[C@H](C(=O)N1CC2(CC2)C[C@H]1c1nc(-c2ccc(C#Cc3ccc4[nH]c([C@@H]5C[C@]6(CCCO6)CN5C(=O)[C@@H](NC(=O)OC)C(C)C)nc4c3)cc2)c[nH]1)C(C)C [Example 626] | – | EC50 [2]: 1.34 nM
9 | CC(C)[C@H](NC(=O)OC1CCC1)C(=O)N1CC2(CC2)C[C@H]1c1ncc(-c2ccc(C#Cc3ccc4nc([C@@H]5CC6(CC6)CN5C(=O)[C@@H](NC(=O)OC5CCC5)C(C)C)[nH]c4c3)cc2)[nH]1 [Example 576] | > 10 | –
10 | COC(=O)N[C@H](C(=O)N1CC2(CC2)C[C@H]1c1nc2ccc(C#Cc3ccc(-c4cnc([C@@H]5CCCN5C(=O)[C@H](NC(=O)OC)c5cccc(Cl)c5)[nH]4)cc3)cc2[nH]1)C(C)C [Example 665] | < 1 | –
11 | COC(=O)N[C@H](C(=O)N1CC2(CC2)C[C@H]1c1nc2ccc(C#Cc3ccc(-c4cnc([C@@H]5C[C@@H](C)CN5C(=O)[C@H](NC(=O)OC)c5ccccc5)[nH]4)cc3)cc2[nH]1)C(C)C [Example 671] | < 1 | –
12 | COC(=O)N[C@H](C(=O)N1CCC[C@H]1c1ncc(-c2ccc(C#Cc3ccc4nc([C@@H]5C[C@@H](C6CC6)CN5C(=O)[C@@H](NC(=O)OC)C(C)C)[nH]c4c3)cc2)[nH]1)C(C)C [Example 572] | < 1 | –
13 | COC(=O)N[C@H](C(=O)N1CC2(CC2)C[C@H]1c1ncc(-c2ccc(C#Cc3ccc4nc([C@@H]5CC6(CC6)CN5C(=O)[C@@H](NC(=O)OC)[C@@H](C)OC)[nH]c4c3)cc2)[nH]1)C(C)C [Example 589] | < 1 | –
14 | COC(=O)N[C@H](C(=O)N1C[C@]2(CNC(=O)O2)C[C@H]1c1ncc(-c2ccc(C#Cc3ccc4nc([C@@H]5CC6(CC6)CN5C(=O)[C@@H](NC(=O)OC)C(C)C)[nH]c4c3)cc2)[nH]1)C(C)C [Example 617] | – | EC50 (read-out: 1a EC50 Range, Table 12, range class): 1 to 10 nM
15 | COC(=O)N[C@H](C(=O)N1CC2(CC2)C[C@H]1c1nc2ccc(C#Cc3ccc(-c4cnc([C@@H]5CCCN5C(=O)[C@H](NC(=O)OC)c5ccccc5F)[nH]4)cc3)cc2[nH]1)C(C)C [Example 594] | < 1 | –
16 | CC[C@@H](C)[C@H](NC(=O)OC)C(=O)N1CCC[C@H]1c1ncc(-c2ccc(C#Cc3ccc4nc([C@@H]5CC6(CC6)CN5C(=O)[C@@H](NC(=O)OC)C(C)C)[nH]c4c3)cc2)[nH]1 [Example 605] | < 1 | –
17 | COC(=O)N[C@H](C(=O)N1C[C@H](CF)C[C@H]1c1ncc(-c2ccc(C#Cc3ccc4nc([C@@H]5C[C@@]6(CCCO6)CN5C(=O)[C@@H](NC(=O)OC)C(C)C)[nH]c4c3)cc2)[nH]1)C(C)C [Example 634] | < 1 | –
18 | COC(=O)N[C@H](C(=O)N1CC2(CC2)C[C@H]1c1nc2ccc(C#Cc3ccc(-c4cnc([C@@H]5C[C@@H](C)CN5C(=O)[C@@H](NC(=O)OC)C5CCOCC5)[nH]4)cc3)cc2[nH]1)C(C)C [Example 603] | < 1 | –
19 | COC(=O)N[C@H](C(=O)N1CC2(CC2)C[C@H]1c1ncc(-c2ccc(C#Cc3ccc4nc([C@@H]5CC6(CC6)CN5C(=O)[C@H](NC(=O)OC)c5cccs5)[nH]c4c3)cc2)[nH]1)C(C)C [Example 582] | < 1 | –
20 | COC(=O)N[C@H](C(=O)N1CC2(CC2)C[C@H]1c1nc2ccc(C#Cc3ccc(-c4cnc([C@@H]5CCCN5C(=O)[C@H](NC(=O)OC)c5ccsc5)[nH]4)cc3)cc2[nH]1)C(C)C [Example 596] | < 1 | –
21 | COC(=O)N[C@H](C(=O)N1C[C@@H]2C[C@@H]2[C@H]1c1nc2cc(C#Cc3ccc(-c4c[nH]c([C@@H]5CCCN5C(=O)[C@@H](NC(=O)OC)C(C)C)n4)cc3)ccc2[nH]1)C(C)C [Example 690] | 1 to 10 | –
22 | COC(=O)N[C@@H](C(=O)N1CC2(CC2)C[C@H]1c1ncc(-c2ccc(C#Cc3ccc4nc([C@@H]5CC6(CC6)CN5C(=O)[C@H](NC(=O)OC)c5ccc(Cl)cc5)[nH]c4c3)cc2)[nH]1)c1ccc(Cl)cc1 [Example 611] | > 10 | –
23 | COC(=O)N[C@@H](C(=O)N1CC2(CC2)C[C@H]1c1ncc(-c2ccc(C#Cc3ccc4nc([C@@H]5CC6(CC6)CN5C(=O)[C@H](NC(=O)OC)c5cccs5)[nH]c4c3)cc2)[nH]1)c1cccs1 [Example 680] | > 10 | –
24 | COC(=O)N[C@H](C(=O)N1CC2(CC2)C[C@H]1c1ncc(-c2ccc(C#Cc3ccc4nc([C@@H]5CC6(CC6)CN5C(=O)[C@H](NC(=O)OC)c5cccc(Cl)c5)[nH]c4c3)cc2)[nH]1)C(C)C [Example 584] | < 1 | –
25 | COC(=O)N[C@H](C(=O)N1CC2(CC2)C[C@H]1c1ncc(-c2ccc(C#Cc3ccc4nc([C@@H]5CC6(CC6)CN5C(=O)[C@H](NC(=O)OC)c5ccc(Cl)cc5)[nH]c4c3)cc2)[nH]1)C(C)C [Example 650] | – | EC50 [2]: 0.079 nM
26 | CC[C@H](C)[C@H](NC(=O)OC)C(=O)N1CC2(CC2)C[C@H]1c1nc2ccc(C#Cc3ccc(-c4cnc([C@@H]5CC6(CC6)CN5C(=O)[C@@H](NC(=O)OC)C(C)C)[nH]4)cc3)cc2[nH]1 [Example 587] | < 1 | –
27 | COC(=O)N[C@@H](CCNC(N)=O)C(=O)N1CCC[C@H]1c1nc(-c2ccc(C#Cc3ccc4[nH]c([C@@H]5CC6(CC6)CN5C(=O)[C@@H](NC(=O)OC)C(C)C)nc4c3)cc2)c[nH]1 [Example 553] | 1 to 10 | –
28 | COC(=O)N[C@H](C(=O)N1CC2(CC2)C[C@H]1c1nc2ccc(C#Cc3ccc(-c4cnc([C@@H]5CCCN5C(=O)[C@@H](NC(=O)OC)[C@@H](C)c5ccccc5)[nH]4)cc3)cc2[nH]1)C(C)C (stereo in doubt) [Example 672] | < 1 | –
29 | COC(=O)N[C@H](C(=O)N1CC2(CC2)C[C@H]1c1nc2ccc(C#Cc3ccc(-c4cnc([C@@H]5CCCN5C(=O)[C@H](NC(=O)OC)c5cccc(F)c5)[nH]4)cc3)cc2[nH]1)C(C)C [Example 600] | < 1 | –
30 | COC(=O)N[C@H](C(=O)N1CC2(CC2)C[C@H]1c1nc2ccc(C#Cc3ccc(-c4cnc([C@@H]5C[C@H]6C[C@H]6N5C(=O)[C@H](NC(=O)OC)c5ccccc5)[nH]4)cc3)cc2[nH]1)C(C)C [Example 659] | < 1 | –
